Laboratory results taken from patent publication US7388014B2, “Quinazoline derivatives and therapeutic use thereof” (Rexahn Pharmaceuticals, Inc., priority 2004, dated 2008).

Experiments:
Format in all cases: cell-based, Human
MDA-MB-231 = experiment: Cell growth inhibition assay (SRB), MDA-MB-231; settings: MDA-MB-231 (breast), 96 hours
Source text: (§1) Cancer cells used in this study to determine the effect of quinazoline compounds were obtained from the following sources: Human OVCAR-3 (ovary), MCF-7 (breast, hormone-dependent), Hs 578T (breast), MDA-MB-231 (breast), HeLa (cervix), PC3 (prostate), HepG2 (liver), A549 (lung), Caki-1 (kidney), HT-29 (colon), HCT116 (colon) and PANC-1 (pancreas) from the American Type Culture Collection (ATCC) (Manassas, Va.); U251 (brain) from Riken (Japan); MKN-45 (stomach) from DSMZ (Germany); UMRC2 (kidney) and Lox IMVI (melanoma) from the United States National Cancer Institute (Bethesda, Md.). All cell lines except Hs 578T, MDA-MB-231, HCT116, UMRC2, Caki-1 and PANC-1 were grown in RPMI1640 medium (Invitrogen, Carlsbad, Calif.) supplemented with 10% fetal bovine serum (“FBS”), 1 mM sodium pyruvate, 10 mM HEPES and 100 U/ml penicillin and 100 μg/ml streptomycin (“P/S”). Hs 578T, MDA-MB-231, HCT116, UMRC2, Caki-1 and PANC-1 cells were maintained in Dulbecco's modified Eagle's medium (“DMEM”, Invitrogen) supplemented with 10% FBS, P/S, 10 mM HEPES and 2 mM L-glutamine. All cells were incubated at 37° C. under humidified 5% CO2.
(§2) The growth inhibition of the substituted quinazoline derivative compounds against a variety of human tumor cells was evaluated. The relative importance of particular substituent groups on the compounds was also studied. The substituted quinazoline derivative compounds, prepared as described above, were tested, along with DMSO as a control.
(§3) The growth inhibition assay of various compounds against 15 human tumor cell lines was performed using the Sulforhodamnine B (“SRB”) method (Skehan et al., J. National Cancer Institute, 82: 1107-1112 (1990)). Briefly, exponentially growing tumor cells were seeded into a 96-well plate at a density of 2-3×10^3 cells/well and treated with quinazoline compounds the next day. Triplicate wells were used for each treatment. The cells were. incubated with the various compounds for 96 hours at 37° C. in a humidified 5% CO2 atmosphere. After 96-hour incubation, cells were fixed with 10% trichloroacetic acid (“TCA”), incubated for 1 hour at 4° C., and washed 3 times with tap water. Subsequently cells were stained with 0.4% sulforhodamine B in 1% acetic acid for 30 minutes, washed 4 times with 1% acetic acid, and air-dried again. After 5 minutes agitation in 10 mM Tris solution, the absorbance of each well was measured at 530 nm using Benchmark Plus Microplate reader (Bio-Rad Laboratories, Hercules, Calif.).
(§4) To translate the OD530 values into the number of live cells in each well, the OD530 values were compared to those on standard OD530—versus—cell number curves generated for each cell line. The percent survival was calculated using the formula: % Survival=live cell number [test]/live cell number [control]×100
(§5) The IC50 values were calculated by non-linear regression analysis.

Hs 578T = experiment: Cell growth inhibition assay (SRB), Hs 578T; settings: Hs 578T (breast), 96 hours
Source text: as §1, §2, §3, §4, §5

PANC-1 = experiment: Cell growth inhibition assay (SRB), PANC-1; settings: PANC-1 (pancreas), 96 hours
Source text: as §1, §2, §3, §4, §5

OVCAR-3 = experiment: Cell growth inhibition assay (SRB), OVCAR-3; settings: OVCAR-3 (ovary), 96 hours
Source text: as §1, §2, §3, §4, §5

Lox IMVI = experiment: Cell growth inhibition assay (SRB), Lox IMVI; settings: Lox IMVI (melanoma), 96 hours
Source text: as §1, §2, §3, §4, §5

HepG2 = experiment: Cell growth inhibition assay (SRB), HepG2; settings: HepG2 (liver), 96 hours, read-out: Inhibition of cell growth (IC50, μM) HepG 2
Source text: as §1, §2, §3, §4, §5

A549 = experiment: Cell growth inhibition assay (SRB), A549; settings: A549 (lung), 96 hours
Source text: as §1, §2, §3, §4, §5

PC3 = experiment: Cell growth inhibition assay (SRB), PC3; settings: PC3 (prostate), 96 hours
Source text: as §1, §2, §3, §4, §5

MCF-7 = experiment: Cell growth inhibition assay (SRB), MCF-7; settings: MCF-7 (breast, hormone-dependent), 96 hours
Source text: as §1, §2, §3, §4, §5

HT-29 = experiment: Cell growth inhibition assay (SRB), HT-29; settings: HT-29 (colon), 96 hours
Source text: as §1, §2, §3, §4, §5

Caki-1 = experiment: Cell growth inhibition assay (SRB), Caki-1; settings: Caki-1 (kidney), 96 hours
Source text: as §1, §2, §3, §4, §5

U251 = experiment: Cell growth inhibition assay (SRB), U251; settings: U251 (brain), 96 hours
Source text: as §1, §2, §3, §4, §5

HeLa = experiment: Cell growth inhibition assay (SRB), HeLa; settings: HeLa (cervix), 96 hours
Source text: as §1, §2, §3, §4, §5

MKN-45 = experiment: Cell growth inhibition assay (SRB), MKN-45; settings: MKN-45 (stomach), 96 hours
Source text: as §1, §2, §3, §4, §5

UMRC2 = experiment: Cell growth inhibition assay (SRB), UMRC2; settings: UMRC2 (kidney), 96 hours
Source text: as §1, §2, §3, §4, §5

Row | Structure (SMILES) | IC50 (MDA-MB-231) [µM] | IC50 (Hs 578T) [µM] | IC50 (PANC-1) [µM] | IC50 (OVCAR-3) [µM] | IC50 (Lox IMVI) [µM] | IC50 (HepG2) [µM] | IC50 (A549) [µM] | IC50 (PC3) [µM] | IC50 (MCF-7) [µM] | IC50 (HT-29) [µM] | IC50 (Caki-1) [µM] | IC50 (U251) [µM] | IC50 (HeLa) [µM] | IC50 (MKN-45) [µM] | IC50 (UMRC2) [µM]
1 | Cn1cnc2cc3ncnc(NCCc4ccccc4F)c3cc21 [RX-1857] | > 3 | > 3 | > 3 | > 3 | > 3 | > 3 | > 3 | > 3 | > 3 | > 3 | 1.57 | > 3 | > 3 | > 3 | > 3
2 | Fc1cccc(CCNc2ncnc3ccc(Br)cc23)c1 [RX-1242] | 0.88 | 1.03 | > 3 | > 3 | 0.73 | 0.9 | 2.4 | > 3 | 0.58 | > 3 | 2.39 | 0.56 | > 3 | > 3 | 1.29
3 | Cn1cnc2cc3ncnc(NCc4cccc(F)c4)c3cc21 [RX-1881] | > 3 | > 3 | > 3 | > 3 | > 3 | 1.29 | > 3 | > 3 | 0.68 | > 3 | 2.34 | 0.91 | > 3 | > 3 | > 3
4 | FC(F)(F)c1ccccc1CNc1ncnc2ccc(I)cc12 [RX-1682] | > 3 | > 3 | > 3 | > 3 | > 3 | 1.51 | > 3 | > 3 | 0.55 | > 3 | > 3 | 0.53 | > 3 | > 3 | > 3
5 | Cn1cnc2cc3ncnc(NCCc4cccc(F)c4)c3cc21 [RX-1894] | > 3 | > 3 | > 3 | > 3 | > 3 | 0.85 | > 3 | > 3 | 1.17 | 1.7 | 2.33 | 0.9 | > 3 | > 3 | > 3
6 | c1ccc(CCCCNc2ncnc3cc4[nH]cnc4cc23)cc1 [RX-1842] | 0.84 | 1.05 | > 3 | > 3 | 1.15 | 2.47 | > 3 | > 3 | 1.34 | > 3 | > 3 | 1.93 | > 3 | > 3 | 1.98
7 | Ic1ccc2ncnc(NC3CCCCC3)c2c1 [RX-1659] | > 3 | > 3 | > 3 | > 3 | 1.95 | 1 | > 3 | > 3 | 0.36 | > 3 | 1.71 | 0.51 | > 3 | > 3 | > 3
8 | Ic1ccc2ncnc(NCCCCc3ccccc3)c2c1 [RX-1670] | 1.06 | 1.35 | > 3 | > 3 | 0.88 | 1.51 | > 3 | > 3 | 0.43 | > 3 | > 3 | 0.62 | > 3 | > 3 | 1.53
9 | Cc1cccc2ncnc(NCCc3ccc(F)cc3)c12 [RX-1541] | 0.47 | 0.53 | 0.22 | 2.86 | 2.96 | 0.91 | 1.89 | > 3 | 1.26 | 1.26 | > 3 | 1.78 | > 3 | > 3 | 0.37
10 | FC(F)(F)c1ccccc1CNc1ncnc2ccc(Br)cc12 [RX-1260] | > 3 | > 3 | > 3 | > 3 | > 3 | 2.25 | > 3 | > 3 | 0.74 | > 3 | > 3 | 0.69 | > 3 | > 3 | > 3
11 | Fc1cc(Cl)ccc1Nc1ncnc2ccc(Br)cc12 [RX-1279] | > 3 | > 3 | > 3 | > 3 | > 3 | 0.75 | 2.86 | > 3 | > 3 | > 3 | 2.15 | 2.97 | > 3 | > 3 | > 3
12 | Fc1cc(Cl)ccc1Nc1ncnc2ccc(I)cc12 [RX-1701] | > 3 | > 3 | > 3 | > 3 | > 3 | 1.16 | > 3 | > 3 | 1.36 | > 3 | 2.85 | 2.19 | > 3 | > 3 | > 3
13 | Brc1ccc2ncnc(NCCCCc3ccccc3)c2c1 [RX-1251] | 0.34 | 0.43 | > 3 | > 3 | 0.19 | 0.9 | 1.92 | > 3 | 0.55 | > 3 | 1.96 | 0.42 | > 3 | > 3 | 0.47
14 | Fc1cccc(CCNc2ncnc3ccccc23)c1 [RX-1195] | 0.46 | 0.44 | 0.34 | 2.6 | 2.16 | 1.18 | 2.1 | > 3 | 1.53 | 2.07 | > 3 | 1.95 | > 3 | > 3 | 0.41
15 | Fc1cccc(CCNc2ncnc3ccc(I)cc23)c1 [RX-1668] | > 3 | 0.89 | 1.83 | > 3 | > 3 | 0.3 | > 3 | > 3 | 0.23 | > 3 | 2.93 | 0.27 | > 3 | > 3 | 1.83
16 | Cc1cc(C)c(Nc2ncnc3ccc([N+](=O)[O-])cc23)c(C)c1 [RX-1122] | 0.73 | 1.35 | 1.42 | 1.01 | 1.1 | 2.39 | 2 | 0.88 | 0.63 | 2.55 | 1.11 | 0.57 | 1.3 | 1.33 | 1.09
